Laboratory results: US20160115540A1, “PRODRUGS AND DRUGS” (Biogen MA Inc., priority 2013, published 2016)
Structures can show the parent of a compound that is named as a salt.

Test system: blood and tissues
Experiment: Transcriptional profiling, multi-dosing regimen, naïve mice: blood and other tissues
Type: in vivo
Method: In vivo, DMF is rapidly metabolized to monomethyl fumarate (MMF). […] Animals were exposed to CO2 and whole blood collected via cardiac puncture. Two 100 μl aliquots of whole blood were collected in 1.5 mL microcentrifuge tubes and snap frozen in liquid nitrogen. Peripheral (liver, spleen, kidney and jejunum) and CNS brain (cerebellum, hippocampus, striatum and cortex) tissues were harvested and snap frozen in liquid nitrogen, with special care taken to collect tissues of similar size and from the same location. All samples were stored at -80° C. until RNA extraction was conducted. For RNA preparation, frozen tissues were placed in 2 mL RNAse-free 96-well blocks with 1.5 mL QIAzol Lysis Reagent (QIAgen) and a 3.2 mm stainless steel bead (BioSpec Products, Bartlesville, Okla.). Tissues were disrupted for four cycles of 45 seconds in a Mini-Beadbeater (Biospec Products). RNA was extracted in chloroform and the aqueous phase was mixed with an equal volume of 70% ethanol. Extracted RNA was applied to RNeasy 96 plates and purified by the spin method according to the manufacturer's protocol (RNeasy 96 Universal Tissue Protocol, QIAgen, Hilden Germany). 50 ul of snap frozen mouse blood was re-suspended in lysis buffer with proteinase K and arrayed into deep-well plates for automated RNA extraction. RNA extractions were completed on […] (Beckman Coulter, Indianapolis, Ind.) using Agencourt RNAdvance Blood kit (Part number A35604) according to the manufacturer's specifications. RNA integrity was assessed using the HT RNA reagent kit (Part number 760410, Caliper Life Sciences, Hopkinton, Mass.) using a LabChip GX (PerkinElmer, Waltham, Mass.). RNA samples with a RQS score of >8.0 were considered high quality for downstream microarray processing. […] Two micrograms of biotin labeled […] probe were hybridized to Affymetrix GeneChip Affymetrix HT_MG-430_PM plate arrays with modified conditions as described in […] et al. Washing and staining of the hybridized arrays were completed as described in the GeneChip Expression analysis technical manual for HT plate arrays using the Genechip® Array Station (Affymetrix, Santa Clara, Calif.) with modifications as described in […] et al. The processed GeneChip® plate arrays were scanned using GeneTitan scanner (Affymetrix, Santa Clara, Calif.). Affymetrix scans were subject to quality control (QC) measures. These tests included a visual inspection of the distribution of raw signal intensities and an assessment of RNA degradation, relative log expression (RLE), and normalized unsealed standard error (NUSE). All sample scans that passed these QC metrics were included in the analysis. All CEL files were subjected to GC-content-based Robust Multi-array Average (GCRMA) normalization (version 2.20.0) (Irizarry R A, et al. Nucleic Acids Res 2003; 31:e15; Li C, et al. Genome Biol 2001; 2:[…]0032). […] Stat Appl Genet Mol Biol 2004; 3:Article3). […] Springer Science+Business Media 2005). Changes in gene expression were studied by applying a linear modeling approach to fit gene expression levels according to the defined groups of samples (e.g. DMF-, MMF-, and Vehicle-treated animals) and Bayesian posterior error analysis as implemented by Smyth (Smyth G K. Stat Appl Genet Mol Biol 2004; 3:Article3). The comparisons considered included: DMF-vs-MMF, DMF-vs-Vehicle, and MMF-vs-Vehicle. […] Very few DEGs are observed in blood and tissues derived from the central nervous system (brain, cerebellum, cortex, striatum, and spinal cord).

[1] = CEREBELLUM, 100MMF-vs-Veh, naïve multidose
[2] = LYMPH NODE, 100MMF-vs-Veh, naïve multidose
[3] = Table 13: Naïve, Single Dose (so in the source), 90 mpk MMF-vs-Vehicle, 12 h after last dosing
[4] = WHOLE BLOOD, 100MMF-vs-Veh, naïve multidose

For COC(=O)/C=C/C(=O)O [MMF, monomethyl fumarate], the FC (1447339_PM_at (no gene symbol), WHOLE BLOOD, 100MMF-vs-Veh) was 2.49, the “FC 1110021J02Rik (1419892_PM_at)” value [1] was 1.56 and the “FC 9430064I24Rik (1442912_PM_at)” value [1] was 1.86. For the same molecule, the “FC Aox1 (1419435_PM_at)” value [1] was 1.54, the “FC Apold1 (1441228_PM_at)” value [1] was 1.95 and the “FC Cntn2 (1456962_PM_at)” value [1] was 1.98. For the same molecule, the “FC D130062J21Rik (1446929_PM_at)” value [1] was 1.66, the “FC Kat2b (1450821_PM_at)” value [1] was −1.68 and the “FC Lrrc50 (1421974_PM_at)” value [1] was 1.61. For the same molecule, the “FC Pcsk1n (1416965_PM_at)” value [1] was 1.50, the “FC Prr15 (1452473_PM_at)” value [1] was 1.53 and the “FC Slc35a5 (1423457_PM_at)” value [1] was −1.50. For the same molecule, the “FC Sox12 (1439754_PM_at)” value [1] was 1.67, the “FC Tm6sf2 (1425079_PM_at)” value [1] was 1.85 and the “FC probe 1442605_PM_at (no gene symbol)” value [1] was −1.75. The “FC probe 1446131_PM_at (no gene symbol)” value [1] was 1.78, the FC (Csf1 1460220_PM_a_at, WHOLE BLOOD, 100MMF-vs-Veh) was 1.75 and the FC (Csrp3 1460318_PM_at, WHOLE BLOOD, 100MMF-vs-Veh) was 1.52. For the same molecule, the FC (Egr3 1436329_PM_at, WHOLE BLOOD, 100MMF-vs-Veh) was −1.60, the FC (Gstm1 1416416_PM_x_at, WHOLE BLOOD, 100MMF-vs-Veh) was 1.59 and the “FC Gtf2ird1 (1460364_PM_at)” value [2] was 1.56. For the same molecule, the “FC Npas2 (1421037_PM_at)” value [2] was 1.75, the “FC Nqo1 (1423627_PM_at)” value [2] was 1.74 and the FC (Lpl 1415904_PM_at, WHOLE BLOOD, 100MMF-vs-Veh) was 2.65. The FC (Pla2g7 1430700_PM_a_at, WHOLE BLOOD, 100MMF-vs-Veh) was 1.76, the FC (Slc27a2 1416316_PM_at, WHOLE BLOOD, 100MMF-vs-Veh) was −1.93 and the “Number of differentially expressed genes identified: Cerebellum” value [3] was 15. For the same molecule, the “Number of differentially expressed genes identified: Lymph Node” value [3] was 3, the “Number of differentially expressed genes identified: Whole blood” value [3] was 11 and the FC (Tnfaip2 1416273_PM_at, WHOLE BLOOD, 100MMF-vs-Veh) was 1.81. The FC (Tnfaip2 1438855_PM_x_at, WHOLE BLOOD, 100MMF-vs-Veh) was 1.52, the FC (Trf 1425546_PM_a_at, WHOLE BLOOD, 100MMF-vs-Veh) was 1.56 and the “FC A230048O21Rik (1458051_PM_at)” value [4] was 1.53. For the same molecule, the “FC Aco1 (1456728_PM_x_at)” value [4] was −2.14, the “FC Adamts20 (1456901_PM_at)” value [4] was −1.69 and the “FC Adora2a (1460710_PM_at)” value [4] was 1.66. The “FC Ankrd33b (1453782_PM_at)” value [4] was −1.64, the “FC Anks1b (1460449_PM_at)” value [4] was −1.56 and the “FC Armcx2 (1456739_PM_x_at)” value [4] was −1.76. For the same molecule, the “FC Ascc3 (1457069_PM_at)” value [4] was −1.61, the “FC B3galnt2 1454842_PM_a_at” value [4] was −1.86 and the “FC B3galt1 (1455234_PM_at)” value [4] was −1.50. The “FC Cno 1459783_PM_s_at” value [4] was −1.77, the “FC Commd3 (1454642_PM_a_at)” value [4] was −1.50 and the “FC Cycs /// Gm10053 1456071_PM_a_at” value [4] was −1.64. For the same molecule, the “FC D6Wsu116e (1456056_PM_a_at)” value [4] was −1.74, the “FC Ddr1 (1456226_PM_x_at)” value [4] was −1.58 and the “FC Dnaja1 (1459835_PM_s_at)” value [4] was −1.60. The “FC Eftud2 (1456107_PM_x_at)” value [4] was −1.61, the “FC Eif4g2 (1452758_PM_s_at)” value [4] was −1.91 and the “FC Epc2 (1455317_PM_at)” value [4] was −1.56. For the same molecule, the “FC Fgd4 (1455337_PM_at)” value [4] was −1.52, the “FC Fgfbp3 (1453006_PM_at)” value [4] was −1.58 and the “FC Gm8203 /// H2afz (1456032_PM_x_at)” value [4] was −1.53. The “FC Gsto1 1456036_PM_x_at” value [4] was −1.64, the “FC Gtf3c3 (1454765_PM_at)” value [4] was −1.82 and the “FC Hecw1 (1456527_PM_at)” value [4] was −1.55. For the same molecule, the “FC Hspa1b 1452318_PM_a_at” value [4] was −1.57, the “FC Itga8 (1454966_PM_at)” value [4] was −1.51 and the “FC Kbtbd7 (1452700_PM_s_at)” value [4] was −1.52. The “FC Kcnt2 (1459971_PM_at)” value [4] was −1.73, the “FC Kctd3 1455816_PM_a_at” value [4] was −1.88 and the “FC Lasp1 (1455470_PM_x_at)” value [4] was −1.56. The “FC Lrrtm1 (1455883_PM_a_at)” value [4] was −1.60, the “FC Lztr1 (1455928_PM_x_at)” value [4] was −2.01 and the “FC Matn2 (1455978_PM_a_at)” value [4] was −2.07. The “FC Mrps23 (1459806_PM_x_at)” value [4] was −1.56, the “FC Nr3c1 (1457635_PM_s_at)” value [4] was −1.58 and the “FC Odz2 (1457273_PM_at)” value [4] was −1.53. For the same molecule, the “FC Olfm1 (1455796_PM_x_at)” value [4] was −1.65, the “FC Pcdh17 (1453070_PM_at)” value [4] was −1.53 and the “FC Pik3ca (1453134_PM_at)” value [4] was −1.62. For the same molecule, the “FC Pitrm1 (1456577_PM_x_at)” value [4] was −1.68, the “FC Prcp (1452190_PM_at)” value [4] was 1.53 and the “FC Ptpn12 (1455105_PM_at)” value [4] was −1.54. For the same molecule, the “FC Pvrl3 (1457257_PM_x_at)” value [4] was −2.12, the “FC Qrsl1 (1456542_PM_s_at)” value [4] was −1.67 and the “FC Ralgapa2 (1455750_PM_at)” value [4] was −1.74. The “FC Ric8 (1455809_PM_x_at)” value [4] was −1.56, the “FC Rnf112 (1456108_PM_x_at)” value [4] was −1.57 and the “FC Rp2h (1454816_PM_at)” value [4] was −1.51. The “FC Snx16 (1456041_PM_at)” value [4] was −1.78, the “FC Sos2 (1452281_PM_at)” value [4] was −1.56 and the “FC Surf4 (1455822_PM_x_at)” value [4] was −1.56. The “FC Tceb1 1452593_PM_a_at” value [4] was −1.52, the “FC Tmed10 (1454688_PM_x_at)” value [4] was −1.52 and the “FC Tnik (1458403_PM_at)” value [4] was −1.58. The “FC Tra2a (1454725_PM_at)” value [4] was −1.65, the “FC Trim23 (1456089_PM_at)” value [4] was −1.71 and the “FC Ubr3 (1460455_PM_at)” value [4] was −1.63. For the same molecule, the “FC Wdr6 (1455940_PM_x_at)” value [4] was −1.50, the “FC Wtap (1454805_PM_at)” value [4] was −1.57 and the “FC probe 1452426_PM_x_at (no gene symbol)” value [4] was −1.56. For the same molecule, the “FC probe 1455603_PM_at (no gene symbol)” value [4] was −1.71, the “FC probe 1457494_PM_at (no gene symbol)” value [4] was −1.53 and the “FC probe 1458639_PM_at (no gene symbol)” value [4] was 1.51. The “FC probe 1459409_PM_at (no gene symbol)” value [4] was 1.71.
